# Results taken from patent publication US6821985B2, “Pharmaceutical combinations for the treatment of stroke and traumatic brain injury” (Pfizer, Inc., priority 2000, dated 2004).
# Experiments:
# [1] = target: T1, NR2B subunit containing NMDA receptor (Rattus norvegicus, UniProt P35439+Q00960); experiment: Displacement of specific binding of racemic [3H](+)-(1S,2S)-1-(4-hydroxy-phenyl)-2-(4-hydroxy-4-phenylpiperidino)-1-propanol ([3H]CP-101,606) from rat forebrain membranes; conditions: ratio of the IC50s; greater than three is considered selective for NR2B over α1
# T1 construct: (+)-(1S, 2S)-1-(4-hydroxy-phenyl)-2-(4-hydroxy-4-phenylpiperidino)-1-propanol from rat forebrain membranes; from tissue; host or cells: forebrain membranes of adult male CD rats
# T1 sequence (Q00960 27-1482, other chains not shown): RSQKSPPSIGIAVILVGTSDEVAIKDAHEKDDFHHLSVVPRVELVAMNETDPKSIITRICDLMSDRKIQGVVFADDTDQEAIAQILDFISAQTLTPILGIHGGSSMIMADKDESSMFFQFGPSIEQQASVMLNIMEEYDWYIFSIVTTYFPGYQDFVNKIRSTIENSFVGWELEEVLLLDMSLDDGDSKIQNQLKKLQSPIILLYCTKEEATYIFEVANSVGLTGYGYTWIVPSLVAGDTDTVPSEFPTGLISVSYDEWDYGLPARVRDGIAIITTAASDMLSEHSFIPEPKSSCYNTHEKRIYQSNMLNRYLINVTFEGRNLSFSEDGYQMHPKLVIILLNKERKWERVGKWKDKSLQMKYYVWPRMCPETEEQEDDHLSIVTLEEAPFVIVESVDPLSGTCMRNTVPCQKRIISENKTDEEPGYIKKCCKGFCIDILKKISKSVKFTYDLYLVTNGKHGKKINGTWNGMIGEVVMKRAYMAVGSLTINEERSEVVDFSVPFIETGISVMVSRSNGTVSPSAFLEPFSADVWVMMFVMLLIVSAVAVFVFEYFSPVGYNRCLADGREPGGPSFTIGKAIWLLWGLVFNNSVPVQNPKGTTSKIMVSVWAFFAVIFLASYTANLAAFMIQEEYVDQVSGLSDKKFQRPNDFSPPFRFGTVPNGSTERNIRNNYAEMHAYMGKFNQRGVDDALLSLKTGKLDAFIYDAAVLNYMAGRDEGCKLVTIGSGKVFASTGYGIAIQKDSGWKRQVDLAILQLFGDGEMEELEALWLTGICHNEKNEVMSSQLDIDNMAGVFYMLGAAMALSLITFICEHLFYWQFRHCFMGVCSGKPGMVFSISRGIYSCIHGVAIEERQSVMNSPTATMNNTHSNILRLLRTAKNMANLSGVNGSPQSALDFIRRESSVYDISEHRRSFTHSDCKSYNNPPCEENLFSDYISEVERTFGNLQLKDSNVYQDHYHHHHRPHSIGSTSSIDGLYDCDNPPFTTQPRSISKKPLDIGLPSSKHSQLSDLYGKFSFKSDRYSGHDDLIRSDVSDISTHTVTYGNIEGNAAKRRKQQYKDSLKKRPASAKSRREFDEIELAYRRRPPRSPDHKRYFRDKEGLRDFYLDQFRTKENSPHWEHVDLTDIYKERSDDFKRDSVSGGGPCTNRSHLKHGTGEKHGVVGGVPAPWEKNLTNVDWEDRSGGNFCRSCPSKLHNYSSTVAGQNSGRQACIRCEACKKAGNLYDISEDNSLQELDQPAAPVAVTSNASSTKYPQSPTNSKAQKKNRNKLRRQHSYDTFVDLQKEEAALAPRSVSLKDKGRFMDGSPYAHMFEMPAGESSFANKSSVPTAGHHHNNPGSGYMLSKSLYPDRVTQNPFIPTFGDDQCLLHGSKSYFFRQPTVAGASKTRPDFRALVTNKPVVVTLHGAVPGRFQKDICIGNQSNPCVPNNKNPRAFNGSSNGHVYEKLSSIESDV
# Protocol: This affinity is assessed in a radioligand binding assay as described later in this application.
# This affinity is assessed in a radioligand binding assay as described below.
# The binding of racemic [^3H] […] Forebrains of adult male CD rats are homogenized in 0.32M sucrose at 4° C. The crude nuclear pellet is removed by centrifugation at 1,000×g for 10 minutes, and the supernatant centrifuged at 17,000×g for 25 minutes. The resulting pellet is resuspended in 5 mM Tris acetate pH 7.4 at 4° C. for 10 minutes to lyse cellular particles and again centrifuged at 17,000×g. The resulting pellet is washed twice in Tris acetate, resuspended at 10 mg protein/ml and stored at −20° C. until use.
# For binding assays, membranes are thawed, homogenized, and diluted to 0.5 mg protein/ml with 50 mM Tris HCl, pH 7.4. Compounds under study are added at various concentrations followed by racemic [^3H] […] Following incubation for 20 min at 30° C. in a shaking water bath, samples are filtered onto Whatman GFB glass fiber filters using a MB-48R Cell Harvester (Brandel Research and Development Laboratories, Gaithersburg Md.). Filters are washed for 10 s with ice cold Tris HCl buffer and the radioactivity trapped on the filter quantified by liquid scintillation spectroscopy. Nonspecific binding is determined in parallel incubations containing 100 μM racemic (+)-(1 S, 2S)-1-(4-hydroxy-phenyl)-2-(4-hydroxy-4-phenylpiperidino)-1-propanol. Specific binding is defined as total binding minus nonspecific binding.
# Affinity for the NR^2B subunit containing NMDA receptor is measured as the IC50 for displacement of specific binding of racemic [^3H] […] Affinity for the α1-adrengergic receptor is defined as the IC50 for displacement of specific binding of racemic [^3H]prazosin from rat brain membranes, measured as described by Greengrass and Bremner (Binding Characteristics of [3H]prazosin to Rat Brain α-Adrenergic Receptors, European Journal of Pharmacology, 55, 323-326, (1979)).
# [2] = target: α1-adrenergic receptor; experiment: Displacement of specific binding of [3H]prazosin from rat forebrain membranes; conditions: IC50 for displacement of specific binding, 0.2 nM radioligand
# Protocol: Compounds of the formula I have selectivity for NR^2B subunit-containing NMDA receptors over α1-adrengergic receptors. Affinity for the NR^2B subunit containing NMDA receptor is measured as the IC50 for displacement of specific binding of racemic [^3H] (+)-(1S, 2S)-1-(4-hydroxy-phenyl)-2-(4-hydroxy-4-phenylpiperidino)-1-propanol from rat forebrain membranes (described above). Affinity for the α1-adrengergic receptor is defined as the IC50 for displacement of specific binding of racemic [^3H]prazosin from rat brain membranes, measured as described by Greengrass and Bremner (Binding Characteristics of [3H]prazosin to Rat Brain α-Adrenergic Receptors, European Journal of Pharmacology, 55, 323-326, (1979)).
# Forebrains of adult male Sprague Dawley rats are homogenized in 20 volumes of ice cold 50 mM Tris/HCl buffer (pH 7.7). The homogenate is centrifuged at 50,000×g for 10 minutes at 4° C. The pellet is resuspended and centrifuged under identical conditions and the final pellet is resuspended in 80 volumes of 50 mM Tris/HCl (pH 8.0) at 4° C.
# For binding assays, compounds under study are added at various concentrations to 500 μg membrane protein in 1 ml of 50 mM Tris/HCl buffer, followed by [^3H]prazosin (Amersham, specific activity 33 Ci/mmol, 0.2 nM final concentration). Following incubation for 30 min at 25° C. in a shaking water bath, samples are filtered onto Whatman GFB glass fiber filters using a MB-48R Cell Harvester (Brandel Research and Development Laboratories, Gaithersburg Md.). Filters are washed three times for 10 s with ice cold Tris HCl buffer and the radioactivity trapped on the filter quantified by liquid scintillation spectroscopy. Nonspecific binding is determined in parallel incubations containing 100 nM prazosin. Specific binding is defined as total binding minus nonspecific binding.
SMILES,"Ratio [^3H]Prazosin/[^3H] (+)-(1S, 2S)-1-(4-hydroxy-phenyl)-2-(4-hydroxy-4-phenylpiperidino)-1-propanol [1]",IC50 [2],melting point
"Oc1ccc2c(c1)OC[C@@H](N1CCC(O)(c3ccc(F)cc3)CC1)[C@H]2O [(3R, 4S)-3-(4-(4-fluorophenyl)-4-hydroxypiperidin-1-yl)-chroman-4,7-diol]",≧555,> 10 µM,
Oc1ccc2c(c1)OCC(N1CCC(O)(c3ccc(F)cc3)CC1)[C@H]2O (stereo in doubt),,,159 to 160 °C
"OC(CN1CCC(Cc2ccc(F)cc2)CC1)c1ccc(Cl)cc1 (centres unmarked) [Eliprodil, reference compound]",2.2,0.98 ± 0.22 µM,
"COc1cc([C@H](O)[C@H](C)N2CCC(O)(c3ccccc3)CC2)ccc1O [(1S, 2S)-1-(4-hydroxy-3-methoxyphenyl)-2-(4-hydroxy-4-phenylpiperidino)-1-propanol]",86,8.1 µM,
"C[C@@H]([C@@H](O)c1ccc(O)cc1)N1CCC(O)(c2ccccc2)CC1 [(+)-(1S, 2S)-1-(4-hydroxy-phenyl)-2-(4-hydroxy-4-phenylpiperidino)-1-propanol]",,19.5 µM,
